# From PMC11820618 (Molecules, 2025)
# Like-named read-outs stand apart in the source and are kept apart here.
# How the values were obtained:
# [1] = target: T1, human TRPV1 (Homo sapiens, UniProt Q8NER1); assay: cell-based; conditions: for Emax: HEK293, read-out: TRPV1 Eff. %;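 for Emax: percent of maximal Ca2+ influx with 4 µM ionomycin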;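 for TRPV1 Eff. %: percent of maximal Ca2+ influx with 4 µM ionomycin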
# T1 construct: expressed in transfected cells
# [2] = target: T2, rat TRPA1 (Rattus norvegicus, UniProt Q6RI86); assay: cell-based; conditions: for Emax: HEK293, read-out: TRPA1 Eff. %;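 for Emax: percent of maximal Ca2+ influx with 100 µM AITC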;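 for TRPA1 Eff. %: percent of maximal Ca2+ influx with 100 µM AITC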
# T2 construct: expressed in transfected cells
# [3] = tested on: TRPV1; conditions: cited from earlier work; for EC50: read-out: TRPV1 EC50 (potency); for IC50: read-out: TRPV1 IC50 (desensitization)
# T2 sequence (Q6RI86 whole entry): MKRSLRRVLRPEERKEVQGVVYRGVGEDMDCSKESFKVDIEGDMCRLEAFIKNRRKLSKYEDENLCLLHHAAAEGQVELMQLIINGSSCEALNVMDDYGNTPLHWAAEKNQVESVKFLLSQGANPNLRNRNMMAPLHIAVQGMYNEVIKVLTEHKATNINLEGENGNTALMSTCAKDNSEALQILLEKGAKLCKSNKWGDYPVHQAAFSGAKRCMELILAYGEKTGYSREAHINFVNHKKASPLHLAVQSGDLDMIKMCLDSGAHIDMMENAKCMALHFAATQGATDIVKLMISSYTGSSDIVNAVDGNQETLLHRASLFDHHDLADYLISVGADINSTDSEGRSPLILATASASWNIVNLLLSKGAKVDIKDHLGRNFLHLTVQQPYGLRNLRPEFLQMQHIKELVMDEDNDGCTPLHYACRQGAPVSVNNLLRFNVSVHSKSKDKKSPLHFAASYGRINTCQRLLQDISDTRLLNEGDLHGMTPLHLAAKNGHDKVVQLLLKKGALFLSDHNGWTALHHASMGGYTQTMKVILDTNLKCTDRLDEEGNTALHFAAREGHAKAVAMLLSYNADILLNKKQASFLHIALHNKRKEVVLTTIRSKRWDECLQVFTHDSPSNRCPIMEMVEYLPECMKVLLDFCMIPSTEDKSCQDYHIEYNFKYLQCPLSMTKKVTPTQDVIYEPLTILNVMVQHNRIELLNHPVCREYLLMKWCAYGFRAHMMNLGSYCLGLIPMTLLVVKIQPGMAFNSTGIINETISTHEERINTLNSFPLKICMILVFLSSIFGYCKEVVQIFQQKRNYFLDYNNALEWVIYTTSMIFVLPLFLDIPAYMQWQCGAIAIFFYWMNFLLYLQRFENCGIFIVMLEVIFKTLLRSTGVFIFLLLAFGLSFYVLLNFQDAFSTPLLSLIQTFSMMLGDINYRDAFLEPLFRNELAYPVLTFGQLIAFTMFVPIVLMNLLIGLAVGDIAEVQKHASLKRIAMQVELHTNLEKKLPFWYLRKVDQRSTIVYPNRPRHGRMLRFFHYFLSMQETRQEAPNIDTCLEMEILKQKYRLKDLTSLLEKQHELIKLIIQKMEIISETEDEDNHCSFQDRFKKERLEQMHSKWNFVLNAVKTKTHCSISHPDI
# T1 sequence (Q8NER1 whole entry): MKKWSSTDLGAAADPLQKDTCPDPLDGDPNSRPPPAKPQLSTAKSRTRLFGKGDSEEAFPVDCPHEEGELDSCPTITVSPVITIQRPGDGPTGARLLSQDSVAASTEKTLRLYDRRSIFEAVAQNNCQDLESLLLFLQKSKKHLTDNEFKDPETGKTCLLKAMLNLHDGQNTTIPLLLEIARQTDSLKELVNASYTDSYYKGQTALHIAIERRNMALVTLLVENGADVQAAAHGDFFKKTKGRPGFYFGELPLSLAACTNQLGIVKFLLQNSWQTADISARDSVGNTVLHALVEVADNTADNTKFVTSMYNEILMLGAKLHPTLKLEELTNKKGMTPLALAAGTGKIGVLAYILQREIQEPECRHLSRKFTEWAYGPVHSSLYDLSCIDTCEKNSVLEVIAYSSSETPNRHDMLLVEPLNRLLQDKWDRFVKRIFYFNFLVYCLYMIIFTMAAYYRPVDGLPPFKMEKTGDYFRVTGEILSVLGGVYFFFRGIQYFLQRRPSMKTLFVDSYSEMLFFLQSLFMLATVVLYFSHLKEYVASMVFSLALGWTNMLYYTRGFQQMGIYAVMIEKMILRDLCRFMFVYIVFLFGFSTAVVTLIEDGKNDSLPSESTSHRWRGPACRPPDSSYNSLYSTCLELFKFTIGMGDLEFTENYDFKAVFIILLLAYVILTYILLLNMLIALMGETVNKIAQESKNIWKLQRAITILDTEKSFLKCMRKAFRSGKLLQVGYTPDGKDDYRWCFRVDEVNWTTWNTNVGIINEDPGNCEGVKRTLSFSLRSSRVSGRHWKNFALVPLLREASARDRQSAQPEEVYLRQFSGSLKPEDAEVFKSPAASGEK
Structure (SMILES),IC50 [1] [µM],Emax [1] [%],EC50 [2] [µM],IC50 [2] [µM],Emax [2] [%],EC50 [1] [µM],other results
"O=C(NCc1ccc(F)c(F)c1)c1cc2ccccc2[nH]1 [5h, N-(3,4-Difluorobenzyl)-1H-indole-2-carboxamide]",> 100,< 10,19.1 ± 3.1,> 50,68.4 to 101,–,–
"COc1cc(CNC(=O)c2cc3ccccc3n2C)ccc1O [6g, N-(4-hydroxy-3-methoxybenzyl)-1-methyl-1H-indole-2-carboxamide]",–,> 60,> 50,> 100,59.8 ± 1.6,0.0365,IC50 ([1]; read-out: TRPV1 IC50 (antagonism/desensitization)): 0.0535 ± 0.048 µM
"O=C(NCc1ccc(Cl)c(Cl)c1)c1cc2ccccc2[nH]1 [5g, N-(3,4-Dichlorobenzyl)-1H-indole-2-carboxamide]",> 100,< 10,–,–,–,–,–
"O=C(NCCc1ccc(O)c(O)c1)c1cc2ccccc2[nH]1 [5i, N-(3,4-Dihydroxyphenethyl)-1H-indole-2-carboxamide]",2.1 ± 0.1,37.3 ± 0.1,–,–,–,8.1 ± 0.1,TRPV1 agonist behaviour (in words) [1]: very weak agonist
"COc1cc(CNC(=O)CCCc2cccs2)ccc1O [compound 2, N-(4-Hydroxy-3-Methoxybenzyl)-4-(Thiophen-2-yl)Butanamide]",–,–,–,–,–,–,EC50 [3]: 0.87 µM; IC50 [3]: 1.3 µM
COc1cc(CNC(=O)CCCc2ccc(-c3cccnc3)s2)ccc1O [4b],–,–,–,–,–,–,EC50 [3]: 0.0764 µM; IC50 [3]: 0.145 µM
"Cn1c(C(=O)NCc2ccccc2)cc2ccccc21 [6c, N-Benzyl-1-methyl-1H-indole-2-carboxamide]",> 50,< 10,–,> 50,< 10,–,–
"Cn1c(C(=O)NCc2ccc(F)cc2)cc2ccccc21 [6f, N-(4-fluorobenzyl)-1-methyl-1H-indole-2-carboxamide]",> 100,< 10,20.4 ± 6.9,33.5 ± 3.2,–,–,–
COc1cc(CNC(=O)CCCc2ccccc2)ccc1O [4d],–,–,–,–,–,–,EC50 [3]: 0.109 µM; IC50 [3]: 0.273 µM
COc1cc(CNC(=O)CCCc2ccc(I)s2)ccc1O [4a],–,–,–,–,–,–,EC50 [3]: 0.0074 µM; IC50 [3]: 0.0051 µM
"COc1ccc(CNC(=O)c2cc3ccccc3n2C)cc1 [6e, N-(4-methoxybenzyl)-1-methyl-1H-indole-2-carboxamide]",> 10,< 10,20.3 ± 1.1,> 50,81.3 ± 1.8,–,–
"Cn1c(C(=O)NCc2ccc(Cl)c(Cl)c2)cc2ccccc21 [6h, N-(3,4-Dichlorobenzyl)-1-methyl-1H-indole-2-carboxamide]",16.4 ± 0.5,< 10,–,–,–,–,–
"Cn1c(C(=O)Nc2ccc(F)cc2)cc2ccccc21 [6b, N-(4-Fluorophenyl)-1-methyl-1H-indole-2-carboxamide]",6.9 ± 2.6,34.4,2 ± 1.1,5.2 ± 0.4,78.6,3.5 ± 2.1,TRPV1 Eff. % [1]: 34.4 ± 4.5%; TRPA1 Eff. % [2]: 78.6 ± 9.7%; TRPA1 agonist behaviour (in words) [2]: very good TRPA1 agonist
"Cn1c(C(=O)Nc2ccc(O)cc2)cc2ccccc21 [6a, N-(4-Hydroxyphenyl)-1-methyl-1H-indole-2-carboxamide]",0.72 ± 0.08,> 60,22.7 ± 1.7,> 50,42.9 ± 0.5,0.34 ± 0.01,–
"O=C(NCc1ccc(O)cc1)c1cc2ccccc2[nH]1 [5c, N-(4-Hydroxybenzyl)-1H-indole-2-carboxamide]",> 50,47.2 ± 0.3,–,> 100,< 10,> 10,–
COc1cc(CNC(=O)CCCCC2CCSS2)ccc1O (stereo not drawn) [compound 3],–,–,–,–,–,–,EC50 [3]: 0.13 µM; IC50 [3]: 0.13 µM
"O=C(NCc1ccccc1)c1cc2ccccc2[nH]1 [5b, N-Benzyl-1H-indole-2-carboxamide]",> 100,< 10,–,> 100,< 10,–,–
"Cn1c(C(=O)NCc2ccc(F)c(F)c2)cc2ccccc21 [6i, N-(3,4-Difluorobenzyl)-1-methyl-1H-indole-2-carboxamide]",> 100,< 10,10.9 ± 0.9,32.2 ± 3.2,68.4 to 101,–,–
"COc1cc(CNC(=O)c2cc3ccccc3[nH]2)ccc1O [5f, N-(4-Hydroxy-3-methoxybenzyl)-1H-indole-2-carboxamide]",1.03 ± 0.09,66.8,–,–,–,0.56 ± 0.08,TRPV1 Eff. % [1]: 66.8 ± 1.3%
"O=C(Nc1ccc(O)cc1)c1cc2ccccc2[nH]1 [5a, N-(4-Hydroxyphenyl)-1H-indole-2-carboxamide]",10 ± 3.9,54,–,> 100,< 10,2.3 ± 0.1,–
"COc1ccc(CNC(=O)c2cc3ccccc3[nH]2)cc1 [5d, N-(4-Methoxybenzyl)-1H-indole-2-carboxamide]",> 50,< 10,> 50,> 100,39.1 ± 3.5,–,–
"Cn1c(C(=O)NCCc2ccc(O)c(O)c2)cc2ccccc21 [6j, N-(3,4-Dihydroxyphenethyl)-1-methyl-1H-indole-2-carboxamide]",0.26 ± 0.02,> 60,–,–,–,0.18 ± 0.05,–
COc1cc(CNC(=O)CCCc2ccc(-c3ccccc3)s2)ccc1O [4c],–,–,–,–,–,–,EC50 [3]: 0.0016 µM; IC50 [3]: 0.0017 µM
"O=C(NCc1ccc(F)cc1)c1cc2ccccc2[nH]1 [5e, N-(4-Fluorobenzyl)-1H-indole-2-carboxamide]",> 100,< 10,23.7 ± 2.1,> 50,42.8 ± 1.8,–,–
"Cn1c(C(=O)NCc2ccc(O)cc2)cc2ccccc21 [6d, N-(4-hydroxybenzyl)-1-methyl-1H-indole-2-carboxamide]",19.2 ± 6.7,27.6,–,> 100,< 10,1.1 ± 0.1,TRPV1 Eff. % [1]: 27.6 ± 0.3%
